Laboratory results as given in patent publication US10428076B2, “Soluble guanylate cyclase stimulators” (Merck Sharp & Dohme Corp., priority 2015, dated 2019).

Key:
[1] = target: sGC α1/β1 heterodimer stably expressed in CHO-K1 cells (CHO-K1/sGC) (Homo sapiens (Human), UniProt Q02108+Q02153); test: Cell-based sGC functional assay (Cyclic GMP Assay for sGC Activator: CASA assay); conditions: for Emax: CHO-K1, activity expressed as a percentage of compound A (standard), read-out: % Activation
Description: Cell-based sGC Functional Assay (Cyclic GMP Assay for sGC Activator: CASA Assay)
Soluble guanylate cyclase (sGC) is a heme-containing enzyme that converts GTP to secondary messenger cGMP. Increases in cGMP levels affect several physiological processes including vasorelaxation through multiple downstream pathways. […] Heme-dependent activators (HDAs) preferentially activate sGC containing a ferrous heme group. To determine the effect of sGC activators on enzyme activity, the CASA assay was developed to monitor the generation of cGMP in a cell line that stably expresses the heterodimeric sGC protein.
Methods: A CHO-K1 cell line stably expressing the sGC α1/β1 heterodimer was generated using a standard transfection protocol. CHO-K1 cells were transfected with plasmids pIREShyghsGCα1 and pIRESneo-hsGCβ1 simultaneously using FUGENE reagent. Clones that stably express both subunits were selected with hygromycin and neomycin for ˜2 weeks. Clone #7 was chosen for the assay and was designated CHO-K1/sGC. CHO-K1/sGC cells were maintained in F-K12 medium containing 10% heat-inactivated Fetal Bovine Serum (FBS), 100 μg/mL penicillin/streptomycin, 0.5 mg/mL hygromycin and 0.25 mg/mL G418. The cells were then cryopreserved in LN2. On the day of the assay, the cells were thawed and resuspended in EBSS Assay Buffer (Sigma, E3024) supplemented with 5 mM MgCl2, 10 mM HEPES (4-(2-hydroxyethyl)piperazine-1-ethanesulfonic acid) and 0.05% BSA (bovine serum albumin) (EAB) and cell density was then adjusted to 2.25×10^5/mL with EAB. IBMX (3-isobutyl-1-methylxanthin, 0.5 mM) was added to inhibit degradation of cGMP. Compounds were diluted from DMSO stock solutions and added to the assay at a final DMSO concentration of 2.5%. Cells were pre-incubated in the presence and absence of 1 μM of Diethylenetriamine/nitric oxide adduct (DETA-NO; Sigma, 17018) for 30 min at 25° C. Compounds are subsequently added and incubated for 1 hr at 37° C. At the end of the incubation period, the reaction was terminated and the cells were lysed with the detection reagents from Cisbio Kits. The level of intracellular cGMP was determined using an HTRF-based assay kit (CisBio, 62GM2PEC), which detects the displacement of a fluorescence labeled cGMP from its specific antibody. The cGMP produced by test compounds was directly compared to the maximum cGMP production (this value was set to equal 100% activation.) of the published sGC-HDA compound A:
[drawing 491] (Example 1 in WO 2010/065275, published Jun. 10, 2010). The test compounds' activity were then expressed as a percentage of compound A, the standard in every experiment. This percent activation was calculated either in the presence or absence of DETA-NO which was then plotted. Inflection points (IP) and maximum fold induction was derived using Abase analysis software for 4P fit.

[2] = target: human recombinant sGC enzyme (Homo sapiens (Human), UniProt Q02108+Q02153); test: Size Exclusion Chromatography (SEC) competition binding assay using [3H] Ex-77B as the radioligand; conditions: [3H] Ex-77B radioligand, 24 hours at 37° C., 300 μM DETA/NO
Method: Binding Assay: The binding potencies of sGC compounds to the human recombinant sGC enzyme were determined in a Size Exclusion Chromatography (SEC) competition binding assay using [^3H] Ex-77B as the radioligand. [^3H] […] The parent (non-labeled) molecule was first iodinated then a Pd-catalyzed iodine to tritium exchange provided the labeled compound. […] Assays were conducted in 96-well plates in a total volume of 200 μL. […] Non-specific binding was defined by competition with 1 μM of Ex-77B. After the incubation period, the binding mixtures were loaded onto the gel-filtration plate (ThermoFischer Cat. No. 89808) pre-equilibrated with binding buffer and spun at 1000×g for 3 min at 4° C. on a Bench top centrifuge. The collected eluates in White Frame Clear Well Isoplates (Perkin Elmer Cat #6005040) received 100 μl of UltimaGold scintillation cocktail. The sealed plates were shaken vigorously and span, and counted after 6 hours with a Wallac Microbeta TriLux 1450 LSC & Luminescence Counter (Perkin Elmer).

| Emax [1] [%] | Compound | also measured |
| --- | --- | --- |
| 99.1 | CC(C)(Cc1coc(C2(C)C(=O)Nc3nc(-c4nn(CC5CCCCO5)c5ccccc45)nc(N)c32)n1)C(=O)O (single isomer, unassigned) [Example 230AA, 3-{2-[4-amino-5-methyl-6-oxo-2-{1-[tetrahydro-2H-pyran-2-ylmethyl]-1H-indazol-3-yl}-6,7-dihydro-5H-pyrrolo[2,3-d]pyrimidin-5-yl]-1,3-oxazol-4-yl}-2,2-dimethylpropanoic acid] |  |
| 113 | CC1(N2CCC(CCC(=O)O)C2)C(=O)Nc2nc(-c3nn(Cc4ccccc4F)c4cc(Cl)ccc34)nc(N)c21 (single isomer, unassigned) [Example 261C, 3-[1-{4-Amino-2-[6-chloro-1-(2-fluorobenzyl)-1H-indazol-3-yl]-5-methyl-6-oxo-6,7-dihydro-5H-pyrrolo[2,3-d]pyrimidin-5-yl}pyrrolidin-3-yl]propanoic acid] |  |
| 99 | CC(C)(Cn1cc(C2(C)C(=O)Nc3nc(-c4nn(Cc5ccccc5F)c5cc(Cl)ccc45)nc(N)c32)nn1)C(=O)O (single isomer, unassigned) [Example 140A, 3-(4-{4-Amino-2-[6-chloro-1-(2-fluorobenzyl)-1H-indazol-3-yl]-5-methyl-6-oxo-6,7-dihydro-5H-pyrrolo[2,3-d]pyrimidin-5-yl}-1H-1,2,3-triazol-1-yl)-2,2-dimethylpropanoic acid] |  |
| 98.2 | CC1(c2ccc(CCS(=O)(=O)O)cc2)C(=O)Nc2nc(-c3nn(Cc4ccccc4F)c4cc(Cl)ccc34)nc(N)c21 (single isomer, unassigned) [Example 258B, 2-(4-{4-Amino-2-[6-chloro-1-(2-fluorobenzyl)-1H-indazol-3-yl]-5-methyl-6-oxo-6,7-dihydro-5H-pyrrolo[2,3-d]pyrimidin-5-yl}phenyl)ethanesulfonic acid] |  |
|  | C[C@@]1(c2ccc(CCc3noc(=O)[nH]3)cc2)C(=O)Nc2nc(-c3nn(Cc4ccccc4F)c4cc(Cl)ccc34)nc(N)c21 [Example 256B, (S)-4-Amino-2-[6-chloro-1-(2-fluorobenzyl)-1H-indazol-3-yl]-5-methyl-5-{4-[2-(5-oxo-4,5-dihydro-1,2,4-oxadiazol-3-yl)ethyl]phenyl}-5,7-dihydro-6H-pyrrolo[2,3-d]pyrimidin-6-one] | % Activation ([1]; activity expressed as a percentage of compound A (standard)): 104.4% |
| 86.9 | CC1(c2ccc(CCc3nn[nH]n3)cn2)C(=O)Nc2nc(-c3nn(Cc4ccccc4F)c4cc(Cl)ccc34)nc(N)c21 (single isomer, unassigned) [Example 247A, 5-{5-[2-(2H-tetrazol-5-yl)ethyl]pyridin-2-yl}-4-amino-2-[6-chloro-1-(2-fluorobenzyl)-1H-indazol-3-yl]-5-methyl-5,7-dihydro-6H-pyrrolo[2,3-d]pyrimidin-6-one] |  |
| 95.3 | CC1(c2ccc(CCc3nn[nH]n3)cn2)C(=O)Nc2nc(-c3nn(Cc4ccccc4F)c4ccccc34)nc(N)c21 (single isomer, unassigned) [Example 246A, 5-{5-[2-(2H-tetrazol-5-yl)ethyl]pyridin-2-yl}-4-amino-2-[1-(2-fluorobenzyl)-1H-indazol-3-yl]-5-methyl-5,7-dihydro-6H-pyrrolo[2,3-d]pyrimidin-6-one] |  |
| 54 | CC(C)(Cc1csc(C2(C3CC3)C(=O)Nc3nc(-c4nn(CCCC(F)(F)F)c5ncc(F)cc45)nc(N)c32)n1)C(=O)O (stereo not drawn) [Example 96B, 3-(2-{4-amino-5-cyclopropyl-2-[5-fluoro-1-(4,4,4-trifluorobutyl)-1H-pyrazolo[3,4-b]pyridin-3-yl]-6-oxo-6,7-dihydro-5H-pyrrolo[2,3-d]pyrimidin-5-yl}thiazol-4-yl)-2,2-dimethylpropanoic acid] | Ki [2]: 12.2 nM; EC50 ([1]; inflection point (IP) from 4P fit of percent activation): 311 nM |
| 92.1 | CC1CCC(Cn2nc(-c3nc(N)c4c(n3)NC(=O)C4(C)c3nc(CC(C)(C)C(=O)O)co3)c3ccc(F)cc32)CC1 (racemic) [Example 137AA, 3-{2-[4-amino-2-{6-fluoro-1-[4-methylcyclohexylmethyl]-1H-indazol-3-yl}-5-methyl-6-oxo-6,7-dihydro-5H-pyrrolo[2,3-d]pyrimidin-5-yl]-1,3-oxazol-4-yl}-2,2-dimethylpropanoic acid] |  |
| 96.7 | CC1(c2cccc(-c3nn[nH]n3)n2)C(=O)Nc2nc(-c3nn(Cc4ccccc4F)c4cc(Cl)ccc34)nc(N)c21 (single isomer, unassigned) [Example 253A, 5-[6-(2H-tetrazol-5-yl)pyridin-2-yl]-4-amino-2-[6-chloro-1-(2-fluorobenzyl)-1H-indazol-3-yl]-5-methyl-5,7-dihydro-6H-pyrrolo[2,3-d]pynmidin-6-one] |  |
| 87.6 | CC1(c2cccc(-c3nn[nH]n3)c2)C(=O)Nc2nc(-c3nn(CCC(F)(F)C(F)(F)F)c4ncccc34)nc(N)c21 (single isomer, unassigned) [Example 252B, 4-amino-5-methyl-2-[1-(3,3,4,4,4-pentafluorobutyl)-1H-pyrazolo[3,4-b]pyridin-3-yl]-5-[3-(2H-tetrazol-5-yl)phenyl]-5,7-dihydro-6H-pyrrolo[2,3-d]pyrimidin-6-one] |  |
| 110 | CC1(c2nn(C(C)(C)C(=O)O)c(=O)o2)C(=O)Nc2nc(-c3nn(CCC(F)(F)C(F)(F)F)c4cc(Cl)ccc34)nc(N)c21 (single isomer, unassigned) [Example 99B, 2-[5-{4-Amino-2-[6-chloro-1-(3,3,4,4,4-pentafluorobutyl)-1H-indazol-3-yl]-5-methyl-6-oxo-6,7-dihydro-5H-pyrrolo[2,3-d]pyrimidin-5-yl}-2-oxo-1,3,4-oxadiazol-3(2H)-yl]-2-methylpropanoic acid] |  |
| 98.7 | CC1(c2cn(C(C)(C)C(=O)O)nn2)C(=O)Nc2nc(-c3nn(Cc4ccccc4F)c4cc(Cl)ccc34)nc(N)c21 (single isomer, unassigned) [Example 141A, 2-(4-{4-Amino-2-[6-chloro-1-(2-fluorobenzyl)-1H-indazol-3-yl]-5-methyl-6-oxo-6,7-dihydro-5H-pyrrolo[2,3-d]pyrimidin-5-yl}-1H-1,2,3-triazol-1-yl)-2-methylpropanoic acid] |  |
